SMILES strings stand for the structures. Where only a bound is given, the exact number is not on record here.

The text below walks through data of patent US10647710B2, “Thiazole derivative and applications thereof” (Medshine Discovery Inc., priority 2017, dated 2020).

Tested on in one data set: not listed separately
The data set can be described thus: Pharmacokinetics of compounds in mice in vivo. As to conditions: male, mouse, in vivo; Balb/c mice, oral administration (gavage) 1.0 mg/kg; read-out: Bioavailability F. On the procedure:
Objective: To test the pharmacokinetics of compounds in mice in vivo.
Balb/c mice (male, 18-22 g, 6-8 weeks old, Shanghai Slack)
The pharmacokinetics profile of the compound in rodent was tested using a standard protocol after intravenous and oral administrations. The candidate compound was prepared as a corresponding solution, which was administered as a single intravenous injection (1.0 mg/kg, 5% DMSO/95% 20% hydroxypropyl-β-cyclodextrin) or gavage (1.0 mg/kg, 0.5% methyl Cellulose MC4000). The whole blood samples were collected within 24 hours, centrifuged at 3000 g for 15 minutes, and plasma samples were obtained by separating the supernatant. 4 times volume of acetonitrile solution containing an internal standard was added to precipitate proteins. After centrifugation, the supernatant was collected, to which an equal volume of water was added, and further centrifuged to collect the supernatant. The LC-MS/MS analysis method was used to quantitatively analyze the plasma concentration, and the pharmacokinetics parameters, such as peak concentration, peak time, clearance rate, half-life, area under the curve, and bioavailability were calculated.
In the case of `Cc1nc(N(C)C(=O)Cc2ccc(-c3ccccn3)cc2)sc1S(N)(=O)=O` [Pritelivir, reference compound], the bioavailability amounted to 100%.

The same data set, now with this note: male, mouse, in vivo; Balb/c mice, oral administration (gavage) 1.0 mg/kg; read-out: Concentration Integral AUC.
Regarding `Cc1nc(N(C)C(=O)Cc2ccc(-c3ccccn3)cc2)sc1S(N)(=O)=O` [Pritelivir, reference compound], the AUC was 129 µM·h.

The data set is the same for the next values; noted with them: male, mouse, in vivo; Balb/c mice, single intravenous injection 1.0 mg/kg.
Take `Cc1nc(N(C)C(=O)Cc2ccc(-c3ccccn3)cc2)sc1S(N)(=O)=O` [Pritelivir, reference compound]: the clearance was 0.4 mL/min/kg.

Staying with this data set, now noted: male, mouse, plasma; Balb/c mice, oral administration (gavage) 1.0 mg/kg; read-out: Bioavailability F.
Regarding `Cc1nc(N(C)C(=O)C2Cc3ccc(-c4ccccn4)cc3C2)sc1S(N)(=O)=O` (single isomer, unassigned) [WX037], the bioavailability turned out to be 75%.

Still in this data set, the particulars now being: male, mouse, plasma; Balb/c mice, oral administration (gavage) 1.0 mg/kg; read-out: Concentration Integral AUC.
With `Cc1nc(N(C)C(=O)C2Cc3ccc(-c4ccccn4)cc3C2)sc1S(N)(=O)=O` (single isomer, unassigned) [WX037], the AUC is 24.4 µM·h.

The data set is the same for the next values; noted with them: male, mouse, plasma; Balb/c mice, single intravenous injection 1.0 mg/kg.
In turn, `Cc1nc(N(C)C(=O)C2Cc3ccc(-c4ccccn4)cc3C2)sc1S(N)(=O)=O` (single isomer, unassigned) [WX037] showed a clearance of 1.2 mL/min/kg.

Staying with this data set, now noted: male, mouse, plasma; Balb/c mice, single intravenous injection 1.0 mg/kg; read-out: Half life T1/2 (converted).
On to `Cc1nc(N(C)C(=O)C2Cc3ccc(-c4ccccn4)cc3C2)sc1S(N)(=O)=O` (single isomer, unassigned) [WX037], for which the half-life was 6 h.

A further data set relates to herpes simplex virus type 1 (HSV-1) GHSV-UL46 strain. The data set can be described thus: HSV-1 cytopathic effect (CPE) assay. It is filed as cell-based. As to conditions: Human alphaherpesvirus 1, Vero C1008, in Chlorocebus sabaeus, 120 h, read-out: HSV-1 cytopathic effect EC50, HSV-1 GHSV-UL46 in Vero E6 cells, 5 days culture, CCK8 readout. On the procedure: To evaluate the antiviral activity of compounds against the herpes simplex virus type 1 (HSV-1) GHSV-UL46 strain in the cytopathic effect (CPE) assay.
Virus: HSV-1 GHSV-UL46, ATCC # VR-1544
Cells: African green monkey kidney cell Vero E6, obtained from Wuhan Institute of Virology, Chinese Academy of Sciences.
1.4. The cells were diluted to 1.33×10^5 cells/ml using cytopathic assay medium. The diluted cell suspension was added to a 384-well plate (Corning #3701) by using Multidrop, and 30 μl of the diluted cell suspension (4000 cells) per well were added.
2.2. Compounds were added to cell-inoculated 384-well plates using an ECHO 555 liquid workstation. Eight concentrations were tested in duplicate for each assay compound. For the cell control wells, neither compound nor virus was added. For the virus control wells, no compound was added. The final concentration of DMSO in all the wells was 0.5%.
2.3. The virus was diluted with the assay medium at an inoculation amount of 1.5 TCID90/well, 30 μl. The assay medium was added to the cell control wells with Multidrop, 30 μl per well. Then the diluted virus was added to the compound test wells and the virus control wells with Multidrop, 30 μl per well.
2.4. The cell plates were placed and cultured in a 37° C., CO2 cell incubator for 5 days.
3.2. CCK8 was added to the cell plate with Multidrop, 6 μl per well.
3.4. The absorbance of each well of the cell plate was read with a microplate reader at a wavelength of 450 nm, and 630 nm was used as the reference wavelength. The raw data were obtained by substrating the absorbance at 630 nm from the absorbance at 450 nm (Raw data=OD450-OD630).
4.1. The antiviral activity (% Inhibition) of the assay compound was calculated using the following equation: […]
wherein, Sample is the absorbance of the compound test well; cell control is the average of the absorbances of the cell control wells; and virus control is the average of the absorbances of the virus control wells.
4.2. Dose-response curves were plotted using GraphPad Prism software and the half maximal effective concentration (EC50) of the assay compounds was determined.
`Cc1nc(N(C)C(=O)C2Cc3ccc(-c4ccccn4)cc3C2)sc1S(N)(=O)=O` (single isomer, unassigned) [WX037]: the concentration giving a half-maximal response (EC50) was 7 nM. Still for that read-out and setting: in the case of `Cc1nc(N(C)C(=O)[C@@H]2CCc3cc(-c4ccccn4)ccc32)sc1S(N)(=O)=O` [WX017] it was 46 nM; in that of `Cc1nc(N(C)C(=O)[C@H]2CCc3cc(-c4ccccn4)ccc32)sc1S(N)(=O)=O` [WX018], 250 nM.

In the case of `Cc1nc(N(C)C(=O)[C@@H]2CCCc3cc(-c4ccccn4)ccc32)sc1S(N)(=O)=O` [WX030], the EC50 turned out to be 950 nM. Regarding `Cc1nc(N(C)C(=O)[C@H]2CCCc3cc(-c4ccccn4)ccc32)sc1S(N)(=O)=O` [WX031], the concentration giving a half-maximal response (EC50) was 770 nM. `Cc1nc(N(C)C(=O)C2Cc3ccc(-c4ccccn4)cc3C2)sc1S(N)(=O)=O` (centres unmarked) [WX036]: the EC50 was over 1000 nM. On to `Cc1nc(N(C)C(=O)N2Cc3ccc(-c4ccccn4)cc3C2)sc1S(N)(=O)=O` [WX042], for which the EC50 was 42 nM. In the case of `Cc1nc(N(C)C(=O)C2Cc3ccc(-c4ccccn4)cc3C2)sc1S(=O)(=O)NC1CC1` (centres unmarked) [WX043], the EC50 amounted to 9 nM. The same measure, in the same setting: under `CC(=O)OCC1(C(=O)N(C)c2nc(C)c(S(N)(=O)=O)s2)Cc2ccc(-c3ccccn3)cc2C1` (centres unmarked) [WX072] stands 360 nM; under `Cc1nc(N(C)C(=O)C2(CO)Cc3ccc(-c4ccccn4)cc3C2)sc1S(N)(=O)=O` (centres unmarked) [WX073], 120 nM; under `Cc1nc(N(C)C(=O)C2(C)Cc3ccc(-c4ccccn4)cc3C2)sc1S(N)(=O)=O` (centres unmarked) [WX074], 43 nM. Turning to `Cc1nc(N(C)C(=O)N2CCc3ccc(-c4ccccn4)cc3C2)sc1S(N)(=O)=O` [WX128], the EC50 was determined as 140 nM. As for `COc1cccc(-c2ccc3c(c2)CC(C(=O)N(C)c2nc(C)c(S(N)(=O)=O)s2)C3)n1` (centres unmarked) [WX129], the EC50 was determined as 46 nM. As to `Cc1nc(N(C)C(=O)C2Cc3ccc(-c4nccs4)cc3C2)sc1S(N)(=O)=O` (centres unmarked) [WX130], the EC50 is 17 nM.

Consider `Cc1nc(N(C)C(=O)C2COc3ccc(-c4ccccn4)cc3C2)sc1S(N)(=O)=O` (centres unmarked) [WX131], for which the EC50 turned out to be 130 nM. Consider `Cc1nc(N(C)C(=O)C2CCc3ccc(-c4ccccn4)cc3C2)sc1S(N)(=O)=O` (centres unmarked) [WX133], for which the EC50 was 140 nM. On the same count and under the same terms, under `Cc1nc(N(C)C(=O)C2Cc3ccc(-c4cccc(N(C)C)n4)cc3C2)sc1S(=O)(=O)NC1CC1` (centres unmarked) [WX142] stands 150 nM; under `Cc1nc(N(C)C(=O)C2Cc3ccc(Oc4ccccn4)cc3C2)sc1S(N)(=O)=O` (centres unmarked) [WX144], 410 nM. For the molecule `Cc1cccc(-c2ccc3c(c2)C[C@@H](C(=O)N(C)c2nc(C)c(S(N)(=O)=O)s2)C3)n1` [WX146], the EC50 is 12 nM. On the same count and under the same terms, in the case of `Cc1cccc(-c2ccc3c(c2)C[C@H](C(=O)N(C)c2nc(C)c(S(N)(=O)=O)s2)C3)n1` [WX147] it was 780 nM. Consider `Cc1nc(N(C)C(=O)[C@H]2Cc3ccc(-c4cccc(N(C)C)n4)cc3C2)sc1S(N)(=O)=O` [WX148], for which the EC50 amounted to 44 nM. For the molecule `Cc1nc(N(C)C(=O)[C@@H]2Cc3ccc(-c4cccc(N(C)C)n4)cc3C2)sc1S(N)(=O)=O` [WX149], the EC50 stood at 550 nM. Still for that read-out and setting: under `Cc1nc(N(C)C(=O)[C@H]2Cc3ccc(-c4cccc(N)n4)cc3C2)sc1S(N)(=O)=O` [WX150] stands 12 nM; under `Cc1nc(N(C)C(=O)[C@@H]2Cc3ccc(-c4cccc(N)n4)cc3C2)sc1S(N)(=O)=O` [WX151], 230 nM; under `Cc1nc(N(C)C(=O)[C@H]2Cc3ccc(-c4cccc(N)n4)cc3C2)sc1S(=O)(=O)NC1CC1` [WX152], 7 nM. Same read-out and setting: in the case of `Cc1nc(N(C)C(=O)[C@@H]2Cc3ccc(-c4cccc(N)n4)cc3C2)sc1S(=O)(=O)NC1CC1` [WX153] it was 810 nM; in that of `Cc1nc(N(C)C(=O)[C@H]2Cc3ccc(-c4ncccc4F)cc3C2)sc1S(N)(=O)=O` [WX154], 310 nM. With `Cc1nc(N(C)C(=O)[C@@H]2Cc3ccc(-c4ncccc4F)cc3C2)sc1S(N)(=O)=O` [WX155], the EC50 is 24 nM.

Take `Cc1nc(N(C)C(=O)C2Cc3cc(Cl)c(-c4ccccn4)cc3C2)sc1S(N)(=O)=O` (centres unmarked) [WX156]: the EC50 came out at 650 nM.

Staying with this data set, now noted: read-out: HSV-1 cytopathic effect EC50; HSV-1 GHSV-UL46 in Vero E6 cells, 5 days culture, CCK8 readout.
As to `Cc1nc(N(C)C(=O)C2Cc3cc(F)c(-c4ccccn4)cc3C2)sc1S(N)(=O)=O` (centres unmarked) [WX158], the EC50 was over 1000 nM. In the case of `Cc1nc(N(C)C(=O)C2Cc3cc(F)c(-c4ccccn4)cc3C2)sc1S(N)(=O)=O` (centres unmarked) [WX159], the EC50 was 17 nM.

What is called bioavailability is dose-corrected exposure relative to a reference, in per cent. In general, clearance refers to a measure of how efficiently the substance is removed, as volume per time. Low readings indicate inefficient removal, high ones efficient removal. Broadly, the EC50 is the midpoint of the concentration-response curve.
